Test results reported in PubChem BioAssay (NCI).
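Following 48 hours of exposure in 96-well plates, responses at five concentrations were used to interpolate endpoints linearly. Abbreviation: GI50, concentration required for 50% inhibition of growth. At the TGI there is no net growth.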

Assays:
Assay in all cases: NCI-60 cell line screen, 48 h
MDA-MB-435 = tested on: MDA-MB-435
KM12 colon = tested on: KM12 colon
UACC-62 melanoma = tested on: UACC-62 melanoma
TK-10 renal = tested on: TK-10 renal
HS 578T breast = tested on: HS 578T breast
SW-620 colon = tested on: SW-620 colon
SF-295 CNS = tested on: SF-295 CNS
PC-3 prostate = tested on: PC-3 prostate
HT29 colon = tested on: HT29 colon
MDA-MB-231 breast = tested on: MDA-MB-231 breast

SMILES	TGI (MDA-MB-435) [µM]	TGI (KM12 colon) [µM]	TGI (UACC-62 melanoma) [µM]	TGI (TK-10 renal) [µM]	TGI (HS 578T breast) [µM]	TGI (SW-620 colon) [µM]	TGI (SF-295 CNS) [µM]	TGI (PC-3 prostate) [µM]	TGI (HT29 colon) [µM]	GI50 (MDA-MB-435) [µM]	GI50 (KM12 colon) [µM]	GI50 (MDA-MB-231 breast) [µM]	TGI (MDA-MB-231 breast) [µM]	GI50 (UACC-62 melanoma) [µM]	GI50 (SW-620 colon) [µM]	GI50 (SF-295 CNS) [µM]	GI50 (PC-3 prostate) [µM]	GI50 (HT29 colon) [µM]	GI50 (TK-10 renal) [µM]	GI50 (HS 578T breast) [µM]
O=C1c2ccccc2-[n+]2ccc3c([nH]c4ccccc43)c21	0.329	0.636	0.699	2.72	> 31.6	2.72	1.04	1.08	1.78	–	–	–	–	–	–	–	–	–	–	–
CC(C)(C)c1cc(C(O)(C(F)(F)F)C(F)(F)F)c2c(c1)C(C(F)(F)F)(C(F)(F)F)OC(C)(C(C)(C)C)N2 (configuration not stated)	–	> 100	15	–	–	44.6	16.9	–	22.7	–	–	–	–	–	–	–	–	–	–	–
O=C(Cc1nc2ccccc2c(=O)n1-c1ccccc1Cl)c1ccncc1	–	> 100	> 100	> 100	–	> 100	> 100	–	> 100	–	–	–	–	–	–	–	–	–	–	–
CC1=Nc2c(ccc3c2C(=O)c2ccccc2C3=O)NC(c2cccc3c2CCC3)C1 (configuration not stated)	–	> 100	> 100	> 100	–	> 100	> 100	–	> 100	–	–	–	–	–	–	–	–	–	–	–
COc1ccc(NC(=O)CC2SC(=Nc3ccccc3C)NC2=O)c([N+](=O)[O-])c1 (configuration not stated)	–	> 100	> 100	> 100	–	> 100	> 100	–	> 100	–	–	–	–	–	–	–	–	–	–	–
CCOC(=O)C(=O)Nc1ccccc1C	–	–	> 100	> 100	–	> 100	–	–	–	–	–	–	–	–	–	–	–	–	–	–
CCCNC(=O)C1C(=O)C(=O)N(CCC)C1=O (configuration not stated)	–	> 100	> 100	> 100	–	> 100	–	–	> 100	–	–	–	–	–	–	–	–	–	–	–
COC12CCC(=O)C=C1c1ccccc1N2C(C)=O (configuration not stated)	–	> 100	> 100	–	–	> 100	> 100	–	> 100	–	–	–	–	–	–	–	–	–	–	–
CC(Oc1ccc2c(-c3ccccc3)cc(=O)oc2c1)C(=O)O (configuration not stated)	–	> 100	> 100	> 100	–	> 100	> 100	–	> 100	–	–	–	–	–	–	–	–	–	–	–
Cc1ccccc1NC(=O)c1cc(-c2ccc([N+](=O)[O-])cc2)nc(=S)[nH]1	–	> 100	> 100	> 100	–	> 100	> 100	–	> 100	–	–	–	–	–	–	–	–	–	–	–
CCCCCCCCOC(=O)CC[C@@H](C)[C@H]1CC[C@H]2[C@@H]3[C@H](OC(=O)CCN)C[C@@H]4C[C@H](OC(=O)CCN)CC[C@]4(C)[C@H]3C[C@H](OC(=O)CCN)[C@]12C	18.4	7.51	12.7	–	–	3.93	15.9	22.4	5.79	3.96	3.04	2.44	7.9	3.45	1.95	3.51	7.17	2.44	–	–
COC/C=C\COC	–	> 100	> 100	> 100	–	> 100	> 100	–	> 100	–	–	–	–	–	–	–	–	–	–	–
Nc1ccccc1C#C/C=C\C#Cc1ccc(OCCCNC(=O)c2cc3ccccc3[nH]2)cc1	> 100	> 100	> 100	53.5	> 100	> 100	47.1	–	> 100	20.6	5.98	1.93	14.6	4.11	> 100	12.1	–	32	17.3	15.1
Cc1ccc(NC(=O)CCc2nc(N)nc(N)c2-c2ccccc2)cc1C	–	> 100	> 100	> 100	–	> 100	> 100	–	> 100	–	–	–	–	–	–	–	–	–	–	–
N#Cc1ccccc1C(Cl)(Cl)c1cnccn1	–	> 100	> 100	> 100	–	> 100	> 100	–	> 100	–	–	–	–	–	–	–	–	–	–	–
N/N=C1\C(=O)N(C2CCCCCC2)C(=O)C1C(=O)NC1CCCCCC1 (configuration not stated)	–	> 100	41.6	> 10	–	> 100	> 100	–	> 100	–	–	–	–	–	–	–	–	–	–	–
COc1ccc(C(c2c(O)c3ccccc3n(-c3ccccc3)c2=O)c2c(O)c3ccccc3n(-c3ccccc3)c2=O)cc1	–	> 100	–	> 100	–	> 100	–	–	–	–	–	–	–	–	–	–	–	–	–	–
COc1ccc(-c2cs/c(=N\N=C\c3ccc(O)cc3O)n2/N=C/c2ccc(O)cc2O)cc1	3.48	4.6	3.73	5.1	7.36	4.91	3.33	–	5.26	1.69	1.98	2.04	5.51	1.76	2.33	1.71	–	2.41	2.46	2.7
COc1ccc(OC)c(NC(=O)CCC/C(CC(=O)c2ccc(O)c(OC)c2)=N\Nc2nnc(C)n2N)c1	–	> 100	> 100	> 100	–	> 100	> 100	–	> 100	–	–	–	–	–	–	–	–	–	–	–
